Results on seven molecules are retold here after patent US3975366A, “Process for the production of new pepstatins having anti-pepsin activity” (Zaidan Hojin Biseibutsu Kagaku Kenkyu Kai, priority 1971, dated 1976).

SMILES strings stand for the structures. In brackets after ≈: the same amount, converted by molar mass. Several values for one entry are separate records, joined by “and”; a condition that tells them apart may be missing. Equal values may be shown once. Where a name gives a salt, the structure may show the parent alone.

The target of one data set is pepsin (Sus scrofa, UniProt P00791). Briefly: anti-pepsin activity (50% inhibition of pepsin, ID50). The class given is biochemical. The arrangement: ID50 (50% inhibition against pepsin): unit not given beside the values. The note with it: for ID50 (50% inhibition against pepsin): amount giving 50% inhibition of pepsin.
A further data set in a line: physchem. The note with it: methanol, organic solvent or mixture.

Sequence of pepsin (P00791 60-385): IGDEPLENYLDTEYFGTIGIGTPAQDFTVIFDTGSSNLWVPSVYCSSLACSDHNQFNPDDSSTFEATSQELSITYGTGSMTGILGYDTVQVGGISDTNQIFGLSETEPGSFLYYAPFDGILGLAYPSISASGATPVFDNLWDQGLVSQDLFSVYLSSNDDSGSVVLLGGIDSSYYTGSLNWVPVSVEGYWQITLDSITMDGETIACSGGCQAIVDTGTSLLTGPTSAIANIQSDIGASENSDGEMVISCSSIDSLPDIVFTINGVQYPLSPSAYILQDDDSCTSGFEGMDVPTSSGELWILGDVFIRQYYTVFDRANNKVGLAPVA

As to `CCCCCC(=O)N[C@H](C(=O)N[C@H](C(=O)NC(CC(C)C)C(O)CC(=O)N[C@@H](C)C(=O)NC(CC(C)C)C(O)CC(=O)OCCCC)C(C)C)C(C)C` (stereo partly drawn) [new pepstatin B n-butyl ester], the “ID50 (50% inhibition against pepsin)” value at pepsin is on record as 0.084 γ.

Regarding `CC(=NNc1ccc([N+](=O)[O-])cc1[N+](=O)[O-])C(CC(C)C)NC(=O)C(C)NC(=O)CC(O)C(CC(C)C)NC(=O)C(NC(=O)C(NC(=O)CC(C)C)C(C)C)C(C)C` (stereo not drawn), the “pepsin-inhibitory activity as % of the activity of pepstatin (pepstatin A)” value at pepsin (relative to pepstatin A) is recorded as 37%. Take `CCCCCC(=O)N[C@H](C(=O)N[C@H](C(=O)NC(CC(C)C)C(O)CC(=O)N[C@@H](C)C(=O)NC(CC(C)C)C(O)CC(=O)OCC)C(C)C)C(C)C` (stereo partly drawn) [pepstatin B ethyl ester]: the “ID50 (50% inhibition against pepsin)” value on pepsin is on record as 0.054 γ. For the molecule `CCCCCC(=O)N[C@H](C(=O)N[C@H](C(=O)NC(CC(C)C)C(O)CC(=O)N[C@@H](C)C(=O)NC(CC(C)C)C(O)CC(=O)OC)C(C)C)C(C)C` (stereo partly drawn) [methyl ester of pepstatin B], the “anti-pepsin activity compared with pepstatin methyl ester” value on pepsin (comparison in words) was “the same as that of pepstatin methyl ester”. Besides, the Id50 on pepsin (unit not given, third crystals of Example 3) is 0.05. Besides, the solubility (commonly the concentration that dissolves in the medium under given conditions) in the data set “physchem” was in the range of 5 to 10 mg/mL (≈ 7 to 14 mM). For the molecule `CCCCCC(=O)N[C@H](C(=O)N[C@H](C(=O)NC(CC(C)C)C(O)CC(=O)N[C@@H](C)C(=O)NC(CC(C)C)C(O)CC(=O)O)C(C)C)C(C)C` (stereo partly drawn) [sodium salt of pepstatin B], the “ID50 (50% inhibition against pepsin)” value on pepsin was 0.055 γ and 0.05 γ. For the molecule `CCCCCC(=O)N[C@H](C(=O)N[C@H](C(=O)NC(CC(C)C)C(O)CC(=O)N[C@@H](C)C(=O)NC(CC(C)C)C(O)CC(=O)OCCC)C(C)C)C(C)C` (stereo partly drawn) [pepstatin B n-propylester], at pepsin, the “ID50 (50% inhibition against pepsin)” value is 0.073 γ. With `CCCCCC(=O)N[C@H](C(=O)N[C@H](C(=O)N[C@@H](CC(C)C)[C@@H](O)CC(=O)N[C@@H](C)C(=O)N[C@@H](CC(C)C)[C@@H](O)CC(=O)O)C(C)C)C(C)C` [pepstatin B], the solubility in “physchem” worked out at 100 mg/mL (≈ 143 mM).
